Entries after “also recorded” stand apart in the source; their conditions may differ.

For test [1], the system named is gene expression in organs. The test is described as follows: Blind monkey trial of three peptides: gene expression profiling of organs on Affymetrix U95 chips. Format: in vivo, cynomolgus monkeys. The conditions noted are these: 100 μg/animal/day sc, two weeks.
A short description of test [2]: Blind monkey trial of three peptides: biochemistry, clinical chemistry screening and histopathology. The conditions noted are these: 100 μg/animal/day sc, two weeks. Format: in vivo, cynomolgus monkeys. Here is the method:
For the verification of the selected human proteins or peptides in cynomolgus monkeys, one control and four treated groups (i.e., each of three peptides and placebo) of two males and two females are treated for two weeks by daily administration of the proteins dissolved in autologous serum (e.g., in each animal's own serum) through the subcutaneous route. The administration of the peptides was blinded. The amount of peptide administered was 100 μg/animal/day (5-6 mg of peptide total).
Drug profiling in these non-human primates was analyzed using gene expression profiling of more than 100 organs on Affymetrix U95 chips (each containing ⅓ of the human genome). In addition, extensive biochemistry and clinical chemistry screening (>60 parameters) and histopathology (ca. 60 organs) were performed.

Take “Peptide 2: gonadotrophin releasing hormone (QHWSYGLRPG; Gonadoliberin-1; UniProt P01148 24-33, looked up)”: in test [1], the “Conclusions of the in vivo Profiling by the Data Mining Team: Function/Pathway” value is “Ovarian and testicular”; the “Findings by the Data Mining Team: Adrenals (gene with direction)” value is “Follistatin+; also recorded: IGF2+; also recorded: catecholamines synthesis+; also recorded: activin A−/inhibin+”; the “Findings by the Data Mining Team: Bone marrow (gene with direction)” value is “Macrophages+; also recorded: eosinophils+; also recorded: activin A−; also recorded: inhibin betaB+”; the “Findings by the Data Mining Team: Hypothalamus (gene with direction)” value is “Transthyretin+; also recorded: oxytocin”. Moreover, in test [1], the “Findings by the Data Mining Team: Kidney (gene with direction)” value was “Thiol protease inhibitor (aldosterone + in biochemistry), and +GAPDH and +STAT and +JAK and +TEGT”; the “Findings by the Data Mining Team: Liver (gene with direction)” value is reported as “Activin A−; also recorded: inhibin betaB+; also recorded: lipid metabolism+; also recorded: glycolysis+; also recorded: follistatin+; also recorded: IDO1+; also recorded: VEGF−”; the “Findings by the Data Mining Team: Mammary gland” value is “Inconclusive; Sampling heterogenous”; the “Findings by the Data Mining Team: Ovary (gene with direction)” value is “Nuclear receptors−; also recorded: aromatase and estrogen synthase+; also recorded: activinA−; also recorded: inhibin beta B+”. For the same substance, in test [1], the “Findings by the Data Mining Team: Testis (gene with direction)” value is listed as “CREM+”, the “Findings by the Data Mining Team: Thymus (gene with direction)” value was “Integrin alpha6+; also recorded: VAP1+; also recorded: lipid metabolism; also recorded: binding protein+,” and the “Findings by the Data Mining Team: Thyroid (gene with direction)” value is on record as “Ocludin+; also recorded: thyroid hormone binding protein+; also recorded: THR alpha−”. Also, in test [2], the “Findings by the Data Mining Team: Biochemistry/Histopathology/Haematology (parameter with direction)” value is “Slight increase in aldosterone”.

The record behind these values is US20130040882A1, “USE OF FIBROBLAST GROWTH FACTOR FRAGMENTS” (NOVARTIS AG, priority 2003, published 2013).
